Laboratory results taken from PubChem BioAssay (NCI).
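Interpolation was linear, between the two tested concentrations surrounding the appropriate level; five concentrations were tested over 48 hours in 96-well plates. TGI denotes the concentration required for complete inhibition of growth.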

Assays:
Assay in all cases: NCI-60 cell line screen, 48 h
OVCAR-8 ovarian = system: OVCAR-8 ovarian
K-562 leukemia = system: K-562 leukemia
SK-OV-3 ovarian = system: SK-OV-3 ovarian
MDA-MB-435 = system: MDA-MB-435
T-47D breast = system: T-47D breast
A498 renal = system: A498 renal
NCI-H23 lung = system: NCI-H23 lung
EKVX NSCLC = system: EKVX NSCLC
MOLT-4 leukemia = system: MOLT-4 leukemia
COLO 205 colon = system: COLO 205 colon
UACC-62 melanoma = system: UACC-62 melanoma
HS 578T breast = system: HS 578T breast
TK-10 renal = system: TK-10 renal
UO-31 renal = system: UO-31 renal
HL-60(TB) leukemia = system: HL-60(TB) leukemia
CCRF-CEM leukemia = system: CCRF-CEM leukemia
SK-MEL-2 melanoma = system: SK-MEL-2 melanoma
MDA-MB-231 breast = system: MDA-MB-231 breast
SR leukemia = system: SR leukemia
SK-MEL-5 melanoma = system: SK-MEL-5 melanoma
SF-295 CNS = system: SF-295 CNS
HCT-15 colon = system: HCT-15 colon
DU-145 prostate = system: DU-145 prostate
OVCAR-3 ovarian = system: OVCAR-3 ovarian
HOP-62 NSCLC = system: HOP-62 NSCLC
A549 NSCLC = system: A549 NSCLC
MALME-3M melanoma = system: MALME-3M melanoma
SF-268 CNS = system: SF-268 CNS
HOP-92 NSCLC = system: HOP-92 NSCLC
ACHN renal = system: ACHN renal
OVCAR-4 ovarian = system: OVCAR-4 ovarian
OVCAR-5 ovarian = system: OVCAR-5 ovarian
NCI/ADR-RES ovarian = system: NCI/ADR-RES ovarian
HT29 colon = system: HT29 colon
SK-MEL-28 melanoma = system: SK-MEL-28 melanoma
SN12C renal = system: SN12C renal
U251 CNS = system: U251 CNS
MCF7 breast = system: MCF7 breast
SW-620 colon = system: SW-620 colon
MDA-N = system: MDA-N
UACC-257 melanoma = system: UACC-257 melanoma
CAKI-1 renal = system: CAKI-1 renal
M14 melanoma = system: M14 melanoma
BT-549 breast = system: BT-549 breast
SF-539 CNS = system: SF-539 CNS
RXF 393 renal = system: RXF 393 renal
RPMI-8226 leukemia = system: RPMI-8226 leukemia
NCI-H522 lung = system: NCI-H522 lung
SNB-19 CNS = system: SNB-19 CNS
KM12 colon = system: KM12 colon
NCI-H226 lung = system: NCI-H226 lung
786-0 renal = system: 786-0 renal
HCC-2998 colon = system: HCC-2998 colon
HCT-116 colon = system: HCT-116 colon
NCI-H460 lung = system: NCI-H460 lung
LOX IMVI melanoma = system: LOX IMVI melanoma

COc1ccccc1N1C(=O)/C(=C\c2cc(OC)c(OC)c(OC)c2)SC1c1ccccc1 (stereo unspecified)
TGI (OVCAR-8 ovarian): > 100 µM
TGI (K-562 leukemia): 38.2 µM
TGI (SK-OV-3 ovarian): > 100 µM
TGI (MDA-MB-435): 53.5 µM
TGI (T-47D breast): > 100 µM
TGI (A498 renal): > 100 µM
TGI (NCI-H23 lung): > 100 µM
TGI (EKVX NSCLC): > 100 µM
TGI (MOLT-4 leukemia): > 100 µM
TGI (COLO 205 colon): > 100 µM
TGI (UACC-62 melanoma): > 100 µM
TGI (HS 578T breast): > 100 µM
TGI (TK-10 renal): > 100 µM
TGI (UO-31 renal): > 100 µM
TGI (HL-60(TB) leukemia): > 100 µM
TGI (CCRF-CEM leukemia): 45.5 µM
TGI (SK-MEL-2 melanoma): > 100 µM
TGI (MDA-MB-231 breast): > 100 µM
TGI (SR leukemia): 72.7 µM
TGI (SK-MEL-5 melanoma): > 100 µM
TGI (SF-295 CNS): > 100 µM
TGI (HCT-15 colon): > 100 µM
TGI (DU-145 prostate): > 100 µM
TGI (OVCAR-3 ovarian): > 100 µM
TGI (HOP-62 NSCLC): > 100 µM
TGI (A549 NSCLC): > 100 µM
TGI (MALME-3M melanoma): 81.4 µM
TGI (SF-268 CNS): > 100 µM
TGI (HOP-92 NSCLC): > 100 µM
TGI (ACHN renal): > 100 µM
TGI (OVCAR-4 ovarian): > 100 µM
TGI (OVCAR-5 ovarian): > 100 µM
TGI (NCI/ADR-RES ovarian): > 100 µM
TGI (HT29 colon): > 100 µM
TGI (SK-MEL-28 melanoma): > 100 µM
TGI (SN12C renal): > 100 µM
TGI (U251 CNS): > 100 µM
TGI (MCF7 breast): > 100 µM
TGI (SW-620 colon): > 100 µM
TGI (MDA-N): 42.5 µM
TGI (UACC-257 melanoma): > 100 µM
TGI (CAKI-1 renal): > 100 µM
TGI (M14 melanoma): 91.7 µM
TGI (BT-549 breast): > 100 µM
TGI (SF-539 CNS): > 100 µM
TGI (RXF 393 renal): > 100 µM
TGI (RPMI-8226 leukemia): 25.4 µM
TGI (NCI-H522 lung): > 100 µM
TGI (SNB-19 CNS): > 100 µM
TGI (KM12 colon): > 100 µM
TGI (NCI-H226 lung): > 100 µM
TGI (786-0 renal): > 100 µM
TGI (HCC-2998 colon): > 100 µM
TGI (HCT-116 colon): > 100 µM
TGI (NCI-H460 lung): > 100 µM
TGI (LOX IMVI melanoma): > 100 µM
